According to US20240101576A1, “HETEROCYCLIC INHIBITORS OF EGFR AND/OR HER2, FOR USE IN THE TREATMENT OF CANCER” (Scorpion Therapeutics, Inc., priority 2020, published 2024):

Legend:
Assay type in all cases: cell-based
[1] = molecular target: T1, EGFR L858R (Ba/F3 cells) (Homo sapiens, UniProt P00533, L858R); assay: Inhibitor activity on EGFR-dependent cell growth (CellTiter-Glo, 72 h), Ba/F3 EGFR L858R; conditions: read-out: BaF3 L858R IC50
T1 construct: expressed in transfected cells; host or cells: Ba/F3 (murine pro-B cells), retroviral transduction, puromycin selection, IL3-independent pool
T1 sequence (P00533 25-1210 L858R): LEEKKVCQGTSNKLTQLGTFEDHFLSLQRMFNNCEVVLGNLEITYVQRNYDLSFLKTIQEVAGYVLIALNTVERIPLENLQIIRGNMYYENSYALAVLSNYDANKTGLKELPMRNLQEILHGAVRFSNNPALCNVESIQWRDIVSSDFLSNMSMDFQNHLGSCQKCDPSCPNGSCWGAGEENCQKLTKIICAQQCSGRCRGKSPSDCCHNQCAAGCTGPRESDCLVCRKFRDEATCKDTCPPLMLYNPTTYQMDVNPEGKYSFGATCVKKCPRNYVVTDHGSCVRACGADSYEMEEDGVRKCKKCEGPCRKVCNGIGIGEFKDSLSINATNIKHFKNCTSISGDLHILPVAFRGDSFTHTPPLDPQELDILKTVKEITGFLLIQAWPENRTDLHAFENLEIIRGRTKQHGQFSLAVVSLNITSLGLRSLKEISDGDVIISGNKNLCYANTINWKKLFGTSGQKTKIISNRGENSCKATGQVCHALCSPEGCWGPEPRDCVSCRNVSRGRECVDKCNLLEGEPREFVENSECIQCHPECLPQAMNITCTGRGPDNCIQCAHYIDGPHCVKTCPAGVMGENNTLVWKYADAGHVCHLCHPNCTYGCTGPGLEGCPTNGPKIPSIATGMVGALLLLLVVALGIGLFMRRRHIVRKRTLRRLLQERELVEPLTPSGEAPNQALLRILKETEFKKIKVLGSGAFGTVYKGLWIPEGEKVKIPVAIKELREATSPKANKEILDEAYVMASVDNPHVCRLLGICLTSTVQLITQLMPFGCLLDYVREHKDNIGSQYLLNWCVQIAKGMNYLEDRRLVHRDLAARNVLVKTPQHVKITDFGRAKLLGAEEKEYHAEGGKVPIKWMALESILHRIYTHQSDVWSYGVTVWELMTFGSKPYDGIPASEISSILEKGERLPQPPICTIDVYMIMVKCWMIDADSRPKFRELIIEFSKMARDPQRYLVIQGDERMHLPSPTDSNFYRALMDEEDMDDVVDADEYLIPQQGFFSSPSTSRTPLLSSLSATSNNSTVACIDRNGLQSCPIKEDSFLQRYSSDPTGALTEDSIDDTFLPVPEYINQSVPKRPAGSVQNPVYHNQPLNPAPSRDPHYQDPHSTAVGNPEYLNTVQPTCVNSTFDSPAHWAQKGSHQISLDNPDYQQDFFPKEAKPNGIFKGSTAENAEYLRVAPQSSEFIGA
Description: (§1) Example A. Inhibitor Activity on EGFR-Dependent Cell Growth
(§2) Cell lines are generated by transducing Ba/F3 cells with retroviruses containing vectors with EGFR WT, EGFR L858R, EGFR exon 19del, EGFR L858R/C797S, EGFR exon 20 NPG Ins D770_N771, EGFR exon 20 ASV Ins V769_D770, EGFR exon 20 SVD Ins D770_N771, or EGFR exon 20 FQEA Ins A763_V764 genes and a puromycin selection marker. Transduced cells are selected with puromycin for 7 days and are then be transferred into culture media without Interleukin 3 (IL3). EGFR WT cells are maintained with supplemental EGF. Surviving cells are confirmed to express EGFR by Western blot and maintained as a pool. The IC50 date were included in Table 6 and Table 7.
(§3) 1.1 Cells are harvested from flask into cell culture medium and the cell number counted.
(§4) 1.2 Cells are diluted with culture medium to the desired density and 40 μL of cell suspension is added into each well of 384-well cell culture plate and the seeding density is 800 (FQEA, exon 19del), 600 (WT, NPG, L858R/C797S), or 400 (ASV, SVD, L858R) cells/well.
(§5) 2 Compound Preparation and Treatment
(§6) 2.1 Test compounds are dissolved to 10 mM in a DMSO stock solution. 45 μL of stock solution is transferred to a 384 polypropylene plate (pp-plate). Perform 3-fold, 10-point dilution via transferring 15 μL compound into 30 μL DMSO using a TECAN (EVO200) liquid handler.
(§7) 2.2 Spin plates at room temperature at 1,000 RPM for 1 minute.
(§8) 2.3 Transfer 120 nL of diluted compound from compound source plate into the cell plate.
(§9) 2.4 After compound treatment for 72 hours, perform CTG detection for compound treatment plates as described in “Detection” section.
(§10) 3.1 Plates are removed from incubators and equilibrated at room temperature for 15 minutes.
(§11) 3.2 Thaw the CellTiter Glo reagents and allow to equilibrate to room temperature before the experiment.
(§12) 3.3 Add 40 μL of CellTiter-Glo reagent into each well (at 1:1 to culture medium). Then place the plates at room temperature for 30 min followed by reading on EnVision.
(§13) 4.1 Inhibition activity is calculated following the formula below:
(§14) % Inhibition=100×(LumHC−LumSample)/(LumHC−LumLC) • where HC is obtained from cells treated with 0.1% DMSO only; and LC is obtained from culture medium only.
(§15) 4.2 2. Calculate the IC50 by fitting the Curve using Xlfit (v5.3.1.3), equation 201.
(§16) Y=Bottom+(Top−Bottom)/(1+10^((Log IC50−X)*HillSlope))

[2] = molecular target: EGFR exon 19del (Ba/F3 cells) (Homo sapiens, UniProt P00533); assay: Inhibitor activity on EGFR-dependent cell growth (CellTiter-Glo, 72 h), Ba/F3 EGFR exon 19del; conditions: Ba/F3 EGFR exon 19del cell growth, read-out: BaF3 Del19 IC50
EGFR exon 19del (Ba/F3 cells), sequence (P00533 with tags, fused parts or gaps DEL746-750): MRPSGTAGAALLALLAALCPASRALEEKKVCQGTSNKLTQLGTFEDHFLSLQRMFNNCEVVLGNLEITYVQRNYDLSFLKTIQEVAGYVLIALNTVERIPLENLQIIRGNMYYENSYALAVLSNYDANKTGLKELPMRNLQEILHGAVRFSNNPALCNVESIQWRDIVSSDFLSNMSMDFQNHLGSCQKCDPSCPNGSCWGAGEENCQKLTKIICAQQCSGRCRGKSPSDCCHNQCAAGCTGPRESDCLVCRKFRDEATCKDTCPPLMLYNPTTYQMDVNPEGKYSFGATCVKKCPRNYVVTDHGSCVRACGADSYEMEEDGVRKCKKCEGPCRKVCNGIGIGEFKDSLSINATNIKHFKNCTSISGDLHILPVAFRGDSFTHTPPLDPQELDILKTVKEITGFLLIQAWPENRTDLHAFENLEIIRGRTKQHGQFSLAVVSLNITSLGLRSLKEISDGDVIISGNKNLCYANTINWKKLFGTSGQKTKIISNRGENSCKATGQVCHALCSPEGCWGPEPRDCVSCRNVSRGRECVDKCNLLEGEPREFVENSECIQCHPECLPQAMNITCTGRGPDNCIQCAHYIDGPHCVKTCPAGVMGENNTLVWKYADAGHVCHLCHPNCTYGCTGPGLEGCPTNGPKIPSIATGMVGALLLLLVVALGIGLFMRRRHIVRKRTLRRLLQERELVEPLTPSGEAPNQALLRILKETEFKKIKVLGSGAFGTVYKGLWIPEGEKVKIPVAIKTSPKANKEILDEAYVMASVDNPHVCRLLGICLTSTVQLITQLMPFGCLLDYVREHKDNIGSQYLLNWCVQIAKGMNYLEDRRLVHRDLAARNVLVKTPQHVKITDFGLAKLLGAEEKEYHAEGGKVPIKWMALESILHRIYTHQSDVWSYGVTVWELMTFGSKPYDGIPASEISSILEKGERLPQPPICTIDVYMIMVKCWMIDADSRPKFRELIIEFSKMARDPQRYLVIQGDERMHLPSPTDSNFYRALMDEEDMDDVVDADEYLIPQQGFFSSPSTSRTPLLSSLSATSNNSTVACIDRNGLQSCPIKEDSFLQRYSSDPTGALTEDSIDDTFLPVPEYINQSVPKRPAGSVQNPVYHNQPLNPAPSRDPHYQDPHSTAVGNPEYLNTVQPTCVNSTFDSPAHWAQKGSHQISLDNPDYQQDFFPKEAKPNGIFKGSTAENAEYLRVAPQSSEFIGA
Description: as §1, §2, §3, §4, §5, §6, §7, §8, §9, §10, §11, §12, §13, §14, §15, §16

[3] = molecular target: T2, EGFR WT (Ba/F3 cells) (Homo sapiens, UniProt P00533); assay: Inhibitor activity on EGFR-dependent cell growth (CellTiter-Glo, 72 h), Ba/F3 EGFR WT; conditions: read-out: BaF3 WT IC50
T2 construct: expressed in transfected cells; host or cells: Ba/F3 (murine pro-B cells), retroviral transduction, puromycin selection, maintained with EGF
In short: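 This growth assay used Ba/F3 cells that depend on wild-type EGFR and are kept in EGF without IL3. Compounds were made up as 10 mM DMSO stocks and diluted 3-fold over 10 points. 120 nL went onto 600 cells/well. After 72 hours, 40 μL CellTiter-Glo was added and luminescence read on EnVision after 30 min.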

[4] = molecular target: T3, EGFR exon 20 NPG Ins D770_N771 (Ba/F3 cells) (Homo sapiens, UniProt P00533, INS770NPG); assay: Inhibitor activity on EGFR-dependent cell growth (CellTiter-Glo, 72 h), Ba/F3 EGFR exon 20 NPG Ins; conditions: read-out: BaF3 NPG IC50
T3 construct: expressed in transfected cells; host or cells: Ba/F3 (murine pro-B cells), retroviral transduction, puromycin selection, IL3-independent pool
In short: (§17)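 IC50s derive from a sigmoidal dose–response fit of CellTiter-Glo signal. The signal was normalised between […]-treated cells and cell-free medium. Ba/F3 mutant-EGFR cells, seeded at 400–800/well depending on the line, had 72 h of exposure to a 10-point, 3-fold compound series.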

[5] = molecular target: T4, EGFR exon 20 FQEA Ins A763_V764 (Ba/F3 cells) (Homo sapiens, UniProt P00533, INS763FQEA); assay: Inhibitor activity on EGFR-dependent cell growth (CellTiter-Glo, 72 h), Ba/F3 EGFR exon 20 FQEA Ins; conditions: read-out: BaF3 FQEA IC50
T4 construct: expressed in transfected cells; host or cells: Ba/F3 (murine pro-B cells), retroviral transduction, puromycin selection, IL3-independent pool
In short: as §17

[6] = molecular target: EGFR (CUTO14 cells) (Homo sapiens, UniProt P00533); assay: Inhibitor activity on EGFR phosphorylation (pEGFR AlphaLISA, 2 h), CUTO14 cells
EGFR (CUTO14 cells), sequence (P00533 with tags, fused parts or gaps DUP767-769): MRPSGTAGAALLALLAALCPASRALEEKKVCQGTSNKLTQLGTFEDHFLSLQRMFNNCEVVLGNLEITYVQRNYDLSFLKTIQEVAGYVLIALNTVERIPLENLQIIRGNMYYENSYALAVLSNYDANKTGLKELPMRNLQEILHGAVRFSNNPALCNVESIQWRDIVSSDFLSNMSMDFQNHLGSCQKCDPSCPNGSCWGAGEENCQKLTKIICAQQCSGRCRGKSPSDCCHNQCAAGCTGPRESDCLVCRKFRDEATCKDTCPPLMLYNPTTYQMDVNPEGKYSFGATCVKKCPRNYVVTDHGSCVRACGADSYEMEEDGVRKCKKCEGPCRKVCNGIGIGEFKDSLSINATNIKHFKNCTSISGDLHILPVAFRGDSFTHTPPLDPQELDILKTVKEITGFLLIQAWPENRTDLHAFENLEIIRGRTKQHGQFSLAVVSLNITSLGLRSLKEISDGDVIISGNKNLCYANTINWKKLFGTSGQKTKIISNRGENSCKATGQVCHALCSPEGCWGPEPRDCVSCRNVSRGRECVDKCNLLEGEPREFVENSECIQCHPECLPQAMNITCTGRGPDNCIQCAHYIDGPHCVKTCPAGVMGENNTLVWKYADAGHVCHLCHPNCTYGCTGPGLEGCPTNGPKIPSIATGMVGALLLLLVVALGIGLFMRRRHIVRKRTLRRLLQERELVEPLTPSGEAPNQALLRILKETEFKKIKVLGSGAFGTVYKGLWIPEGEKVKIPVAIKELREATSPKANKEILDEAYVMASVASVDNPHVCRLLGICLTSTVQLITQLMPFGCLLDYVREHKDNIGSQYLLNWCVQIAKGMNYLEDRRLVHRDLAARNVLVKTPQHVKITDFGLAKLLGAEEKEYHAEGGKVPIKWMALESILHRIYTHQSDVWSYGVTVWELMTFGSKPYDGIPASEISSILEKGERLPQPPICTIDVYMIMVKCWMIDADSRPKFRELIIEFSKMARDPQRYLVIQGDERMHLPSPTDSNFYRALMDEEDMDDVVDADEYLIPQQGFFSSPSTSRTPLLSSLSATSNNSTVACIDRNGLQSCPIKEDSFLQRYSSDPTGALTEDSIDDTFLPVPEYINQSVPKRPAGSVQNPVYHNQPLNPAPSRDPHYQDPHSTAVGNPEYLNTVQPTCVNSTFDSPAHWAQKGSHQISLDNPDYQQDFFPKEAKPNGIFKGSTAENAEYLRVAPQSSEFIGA
Description: Example B. Inhibitor Activity on EGFR phosphorylation (pEGFR)
EGFR mutant Ba/F3 cells were generated by transduction with retrovirus containing vectors expressing EGFR L858R, EGFR exon 19del, EGFR L858R/C797S, EGFR exon 20 NPG Ins D770_N771, EGFR exon 20 ASV Ins V769_D770, or EGFR exon 20 SVD Ins D770_N771 genes along with a puromycin selection marker. Transduced cells are selected with puromycin for 7 days and are then be transferred into culture media without Interleukin 3 (IL3). Surviving cells are confirmed to express EGFR by Western blot and maintained as a pool. CUTO14 cells were obtained from Dr. Robert C. Doebele at the University of Colorado. The IC50 date are included in Table 6 and Table 7.
as §3
1.2 Cells are diluted with culture medium to the desired density and 40 μL of cell suspension is added into each well of 384-well cell culture plate and the seeding density is 50K cells/well (Ba/F3) or 12.5K cells/well (CUTO14).
as §5, §6, §7
2.3 Transfer 5 nL of diluted compound from compound source plate into the cell plate.
2.4 After compound treatment for 2 hours, perform pEGFR detection by AlphaLISA for compound treatment plates as described in “Detection” section.
3 Detection by pEGFR AlphaLISA (Perkin-Elmer)
3.1 Plates are removed from incubators and equilibrated at room temperature for 10 minutes, and media was removed
3.2 10 μL of lysis buffer is added and plates shaken at 600 rpm for 1 hr.
3.3 Prepare acceptor mix just before use and dispense 5 μL of acceptor mix to all the wells. Shake 350 rpm for Ihr in the dark
3.4 Prepare donor mix under low light conditions prior to use. Dispense 5 μL of donor mix to all the wells. Mix well on the shaker, seal and wrap in aluminum foil and incubate 1.5 hrs at room temperature in the dark
3.5 Transfer 18.5 μL mixture to OptiPlate 384, and read using an Envision. The IC50 date were included in Table 6 and Table 7.

[7] = molecular target: T5, EGFR exon 20 ASV Ins V769_D770 (Ba/F3 cells) (Homo sapiens, UniProt P00533, INS769ASV); assay: Inhibitor activity on EGFR-dependent cell growth (CellTiter-Glo, 72 h), Ba/F3 EGFR exon 20 ASV Ins; conditions: read-out: BaF3 ASV IC50
T5 construct: expressed in transfected cells; host or cells: Ba/F3 (murine pro-B cells), retroviral transduction, puromycin selection, IL3-independent pool
In short: as §17

[8] = molecular target: T6, EGFR exon 20 SVD Ins D770_N771 (Ba/F3 cells) (Homo sapiens, UniProt P00533, INS770SVD); assay: Inhibitor activity on EGFR-dependent cell growth (CellTiter-Glo, 72 h), Ba/F3 EGFR exon 20 SVD Ins; conditions: read-out: BaF3 SVD IC50
T6 construct: expressed in transfected cells; host or cells: Ba/F3 (murine pro-B cells), retroviral transduction, puromycin selection, IL3-independent pool
T6 sequence (P00533 with tags, fused parts or gaps INS770SVD): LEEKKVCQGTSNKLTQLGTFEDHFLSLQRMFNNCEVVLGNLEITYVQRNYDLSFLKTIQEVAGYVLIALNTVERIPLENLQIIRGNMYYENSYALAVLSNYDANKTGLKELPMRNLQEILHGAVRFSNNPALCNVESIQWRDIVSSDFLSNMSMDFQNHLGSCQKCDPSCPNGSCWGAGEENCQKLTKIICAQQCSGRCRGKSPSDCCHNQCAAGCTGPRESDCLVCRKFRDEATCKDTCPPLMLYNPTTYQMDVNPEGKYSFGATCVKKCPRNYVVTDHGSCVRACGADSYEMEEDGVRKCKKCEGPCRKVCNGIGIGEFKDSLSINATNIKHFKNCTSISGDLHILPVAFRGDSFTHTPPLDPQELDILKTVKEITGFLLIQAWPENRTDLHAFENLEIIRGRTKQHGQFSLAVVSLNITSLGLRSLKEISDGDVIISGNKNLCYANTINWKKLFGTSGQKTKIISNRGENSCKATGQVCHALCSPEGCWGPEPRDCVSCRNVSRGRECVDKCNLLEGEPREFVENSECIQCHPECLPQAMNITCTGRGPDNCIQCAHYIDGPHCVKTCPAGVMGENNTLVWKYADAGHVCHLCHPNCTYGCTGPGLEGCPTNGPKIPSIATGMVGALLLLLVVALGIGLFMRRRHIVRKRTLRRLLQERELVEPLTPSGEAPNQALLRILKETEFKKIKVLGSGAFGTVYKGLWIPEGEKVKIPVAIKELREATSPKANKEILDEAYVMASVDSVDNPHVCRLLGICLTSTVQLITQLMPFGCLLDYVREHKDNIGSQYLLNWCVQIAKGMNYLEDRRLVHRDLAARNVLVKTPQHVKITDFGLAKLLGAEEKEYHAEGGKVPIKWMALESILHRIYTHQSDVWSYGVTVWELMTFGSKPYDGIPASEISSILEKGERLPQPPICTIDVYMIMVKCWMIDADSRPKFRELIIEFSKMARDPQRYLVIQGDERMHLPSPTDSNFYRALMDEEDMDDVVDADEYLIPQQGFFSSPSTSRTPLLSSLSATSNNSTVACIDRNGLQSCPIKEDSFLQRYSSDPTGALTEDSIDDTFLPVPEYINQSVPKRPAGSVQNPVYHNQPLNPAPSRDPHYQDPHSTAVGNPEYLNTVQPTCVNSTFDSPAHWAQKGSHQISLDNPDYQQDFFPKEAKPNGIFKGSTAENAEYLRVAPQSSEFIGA
In short: as §17

Structure (SMILES) | IC50 [1] [nM] | IC50 [2] [nM] | IC50 [3] [nM] | IC50 [4] [nM] | IC50 [5] [nM] | IC50 [6] [nM] | IC50 [7] [nM] | IC50 [8] [nM]
COc1c(Cl)cccc1Nc1c(-c2ccncc2F)[nH]c2c1C(=O)NC[C@H]2C[C@@H]1COCCO1 (single isomer, unassigned) [Compound 483] | < 100 | < 100 | > 1000 | < 100 | 100 to 1000 | < 100 | – | –
COc1c(Cl)cccc1Nc1c(-c2ccnc(N)n2)[nH]c2c1C(=O)NC[C@H]2C[C@H]1COCCO1 [Compound 571, (7R)-2-(2-aminopyrimidin-4-yl)-3-[(3-chloro-2-methoxyphenyl)amino]-7-[(2S)-1,4-dioxan-2-ylmethyl]-1H,5H,6H,7H-pyrrolo[3,2-c]pyridin-4-one] | < 100 | < 100 | 100 to 1000 | < 100 | < 100 | < 100 | < 100 | < 100
C=CC(=O)N1CCC2(CC1)CNC(=O)c1c2[nH]c(-c2ccncn2)c1Nc1cc(F)cc(F)c1OC [compound 612] | – | – | 100 to 1000 | < 100 | – | < 100 | < 100 | < 100
C=CC(=O)N1CCC2(CC1)CNC(=O)c1c2[nH]c(-c2ccnc(C)n2)c1Nc1cc(F)cc(F)c1OC [compound 641] | – | – | 100 to 1000 | < 100 | – | < 100 | < 100 | < 100
COc1c(F)cccc1Nc1c(-c2ccnc(C)n2)[nH]c2c1C(=O)NCC21CCN(C(=O)/C=C/CN(C)C)CC1 [compound 649] | – | – | > 1000 | 100 to 1000 | – | 100 to 1000 | 100 to 1000 | 100 to 1000
COc1c(F)cccc1Nc1c(-c2ccncn2)[nH]c2c1C(=O)NCC21CCN(C(=O)/C=C/CN(C)C)CC1 [compound 650] | – | – | > 1000 | 100 to 1000 | – | < 100 | 100 to 1000 | 100 to 1000
COc1c(Cl)cc(F)cc1Nc1c(-c2ccnc(C)n2)[nH]c2c1C(=O)NC[C@H]2C[C@@H]1COCCO1 [compound 652] | – | – | > 1000 | 100 to 1000 | – | < 100 | 100 to 1000 | 100 to 1000
COc1c(Cl)cccc1Nc1c(-c2ccnc(C)n2)[nH]c2c(C[C@@H]3COCCO3)c[nH]c(=O)c12 [compound 655, 3-[(3-chloro-2-methoxyphenyl)amino]-7-[(2R)-1,4-dioxan-2-ylmethyl]-2-(2-methylpyrimidin-4-yl)-1H,5H-pyrrolo[3,2-c]pyridin-4-one] | < 100 | < 100 | 100 to 1000 | < 100 | – | < 100 | < 100 | < 100
COc1c(Cl)cccc1Nc1c(-c2ccncn2)[nH]c2c(C[C@@H]3COCCO3)c[nH]c(=O)c12 [compound 656] | < 100 | < 100 | > 1000 | < 100 | – | < 100 | < 100 | < 100
COc1c(Cl)cccc1Nc1c(-c2ccncc2F)[nH]c2c1C(=O)NC[C@@H]2C[C@@H]1CN(C)CCO1 [compound 790] | – | – | 100 to 1000 | < 100 | – | < 100 | < 100 | < 100

More lines, now with the values ahead:

IC50 [1] [nM] | IC50 [2] [nM] | IC50 [3] [nM] | IC50 [4] [nM] | IC50 [5] [nM] | IC50 [6] [nM] | IC50 [7] [nM] | IC50 [8] [nM] | Structure (SMILES)
< 100 | < 100 | 100 to 1000 | < 100 | < 100 | < 100 | < 100 | < 100 | COc1c(Cl)cccc1Nc1c(-c2ccnc(N)n2)[nH]c2c1C(=O)NC[C@@H]2C[C@H]1COCCO1 [Compound 531, (7S)-2-(2-aminopyrimidin-4-yl)-3-[(3-chloro-2-methoxyphenyl)amino]-7-[(2S)-1,4-dioxan-2-ylmethyl]-1H,5H,6H,7H-pyrrolo[3,2-c]pyridin-4-one]
< 100 | < 100 | < 100 | < 100 | < 100 | < 100 | < 100 | < 100 | C=CC(=O)N1CCC2(CC1)CNC(=O)c1c2[nH]c(-c2ccncc2F)c1Nc1cc(F)cc(Cl)c1OC [Compound 559, 3′-[(3-chloro-5-fluoro-2-methoxyphenyl)amino]-2′-(3-fluoropyridin-4-yl)-1-(prop-2-enoyl)-5′,6′-dihydro-1′H-spiro[piperidine-4,7′-pyrrolo[3,2-c]pyridin]-4′-one]
< 100 | < 100 | < 100 | < 100 | – | < 100 | < 100 | < 100 | C=CC(=O)N1CCC2(CC1)CNC(=O)c1c2[nH]c(-c2ccncn2)c1Nc1cccc(F)c1OC [Compound 611, 3′-[(3-fluoro-2-methoxyphenyl)amino]-1-(prop-2-enoyl)-2′-(pyrimidin-4-yl)-5′,6′-dihydro-1′H-spiro[piperidine-4,7′-pyrrolo[3,2-c]pyridin]-4′-one]
– | – | < 100 | < 100 | – | < 100 | < 100 | < 100 | C=CC(=O)N1CCC2(CC1)CNC(=O)c1c2[nH]c(-c2ccnc(C)n2)c1Nc1cccc(Cl)c1OC [compound 643]
– | – | < 100 | < 100 | – | < 100 | < 100 | < 100 | C=CC(=O)N1CCC2(CC1)CNC(=O)c1c2[nH]c(-c2ccnc(C)n2)c1Nc1cccc(F)c1OC [compound 644]
